The nature of this data set: first-order primary biodegradation rate constant k (sorption-corrected, fDis-corrected) (d-1); higher = faster biodegradation. In a few lines: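 Each of 129 compounds was spiked at 1 μg L^–1 into river water containing sieved sediment (50 g wet solid L^–1) from German, Swiss, Spanish and Greek river segments, then shaken in darkness at 20.5 ± 3.5 °C, the river water temperature, for 10 days in three replicates. Filtered samples of the water phase were measured by ultra-high-performance liquid chromatography coupled to Orbitrap tandem mass spectrometry. First-order k values came from log peak-area regression, corrected for sorption-control dissipation under azide sterilisation and divided by dissolved fraction, and invalid fits were left out.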

The mark [1] stands for this setting: river segment: Greece (EL) A_Contam, incubation temperature 19 °C.
[2] abbreviates: river segment: Greece (EL) G_Contam, incubation temperature 19 °C.
Where [3] appears, read: river segment: Switzerland (CH) U_Pris, incubation temperature 17 °C.
Where [4] appears, read: river segment: Germany (DE) T_Contam, incubation temperature 24 °C.
The mark [5] stands for this setting: river segment: Spain (ES) B_Contam, incubation temperature 24 °C.
[6] abbreviates: river segment: Spain (ES) C_Contam, incubation temperature 24 °C.
[7] abbreviates: river segment: Spain (ES) L_Contam, incubation temperature 24 °C.
The mark [8] stands for this setting: river segment: Switzerland (CH) C_Contam, incubation temperature 17 °C.
Setting [9] is: river segment: Switzerland (CH) U_Contam, incubation temperature 17 °C.
Setting [10] is: river segment: Germany (DE) H_Contam, incubation temperature 24 °C.
Setting [11] is: river segment: Germany (DE) T_Pris, incubation temperature 24 °C.
[12] abbreviates: river segment: Greece (EL) G_Pris, incubation temperature 19 °C.
Setting [13] is: river segment: Greece (EL) L_Contam, incubation temperature 19 °C.
[14] abbreviates: river segment: Spain (ES) F_Pris_Salt, incubation temperature 24 °C.
The mark [15] stands for this setting: river segment: Switzerland (CH) R_Contam, incubation temperature 17 °C.

On to `CCOc1nc2cccc(C(=O)O)c2n1Cc1ccc(-c2ccccc2-c2nnn[nH]2)cc1` [Candesartan], for which the “first-order primary biodegradation rate constant k” value was 0.00917 under setting [1], 0.398 under setting [2] and 0.00966 under setting [3].
For the compound `CCc1cccc(C)c1N(C(=O)CCl)C(C)COC` (configuration not stated) [Metolachlor], the “first-order primary biodegradation rate constant k” value runs as follows: under setting [4], 0.0409; under setting [5], 0.0124; under setting [6], 0.0203; under setting [7], 0.167; under setting [8], 0.0161; under setting [9], 0.0398. For the same compound, the “first-order primary biodegradation rate constant k” value under setting [3] was found to be 0.0285.
Take `CC(C)NCC(O)c1ccc(NS(C)(=O)=O)cc1` (configuration not stated) [Sotalol]: the “first-order primary biodegradation rate constant k” value came to 0.132 under setting [10]; 0.195 under setting [4]; 0.076 under setting [11]; 0.193 under setting [1]; 0.107 under setting [2]; 0.0804 under setting [12]. Moreover, the “first-order primary biodegradation rate constant k” value amounted to 0.337 under setting [13]; 0.147 under setting [5]; 0.232 under setting [6]; 0.0178 under setting [14]; 0.217 under setting [7]; 0.0406 under setting [8]. In addition, the “first-order primary biodegradation rate constant k” value reads like this: under setting [15], 0.0937; under setting [9], 0.108; under setting [3], 0.171.
As for `CC[C@@H](C(N)=O)N1CCCC1=O` [Levetiracetam], the “first-order primary biodegradation rate constant k” value is, setting by setting: under setting [10], 0.229; under setting [4], 0.49; under setting [11], 0.0839; under setting [1], 0.382; under setting [12], 0.188; under setting [5], 0.958. The “first-order primary biodegradation rate constant k” value reads like this: under setting [6], 0.236; under setting [7], 0.262; under setting [15], 0.35.
As to `COc1ccc(NC(=O)N(C)C)cc1Cl` [Metoxuron], the “first-order primary biodegradation rate constant k” value was determined as 0.0437 under setting [10]; 0.106 under setting [4]; 0.0159 under setting [11]; 0.209 under setting [1]; 0.0278 under setting [2]; 0.333 under setting [12]. In addition, the “first-order primary biodegradation rate constant k” value was 0.0742 under setting [13], 0.0285 under setting [7] and 0.022 under setting [9].
For `CCc1cccc(CC)c1N(COC)C(=O)CCl` [Alachlor], the “first-order primary biodegradation rate constant k” value came out at 0.0727 under setting [10]; 0.612 under setting [4]; 0.105 under setting [11]; 0.387 under setting [12]; 0.568 under setting [13]; 0.115 under setting [5]. For the same compound, the “first-order primary biodegradation rate constant k” value runs as follows: under setting [7], 0.12; under setting [8], 0.0903; under setting [15], 0.223; under setting [9], 0.349.
Turning to `CC(C)NCC(O)COc1ccc(COCCOC(C)C)cc1` (configuration not stated) [Bisoprolol], the “first-order primary biodegradation rate constant k” value by setting is: under setting [10], 0.341; under setting [4], 0.352; under setting [11], 0.336; under setting [2], 0.37; under setting [12], 0.293; under setting [13], 1.27. The “first-order primary biodegradation rate constant k” value under setting [5] is 0.569; the “first-order primary biodegradation rate constant k” value under setting [6] was 0.414; the “first-order primary biodegradation rate constant k” value under setting [14] was 0.144; the “first-order primary biodegradation rate constant k” value under setting [7] was found to be 0.28; the “first-order primary biodegradation rate constant k” value under setting [8] was determined as 0.326; the “first-order primary biodegradation rate constant k” value under setting [15] was determined as 0.309. For the same compound, the “first-order primary biodegradation rate constant k” value reads like this: under setting [9], 0.473; under setting [3], 0.772.

The values above are taken from the supplement of paper PMC11562712.
